Here are results for three compounds from ChEMBL document CHEMBL3045563, “Synthesis and in vitro antibacterial activity of schiff bases of N-substituted isatins as effective scaffolds” (2013).

Assay type in all cases: functional
Experiment [1] concerns Staphylococcus aureus. In words: Antibacterial activity against Staphylococcus aureus NCIM 2079 assessed as diameter of growth zone inhibition after 24 hr by disk diffusion method. (In general: Agar diffusion results depend on both activity and mobility in agar.)
For experiment [2], the system named is Staphylococcus aureus. In words: Antibacterial activity against Staphylococcus aureus NCIM 2079 assessed as growth inhibition after 48 hr by NCCLS broth dilution method. The conditions noted are these: NCIM 2079, 48 h. Background: Dilution methods test growth across graded concentrations, often in twofold steps.
The subject of experiment [3] is Staphylococcus epidermidis. As to the kind of experiment: Antibacterial activity against Staphylococcus epidermidis NCIM 2493 assessed as diameter of growth zone inhibition after 24 hr by disk diffusion method.
Experiment [4] relates to Staphylococcus epidermidis. As to the kind of experiment: Antibacterial activity against Staphylococcus epidermidis NCIM 2493 assessed as growth inhibition after 48 hr by NCCLS broth dilution method. The conditions noted are these: NCIM 2493, 48 h.
Experiment [5] deals with Proteus vulgaris. In words: Antibacterial activity against Proteus vulgaris NCIM 2027 assessed as growth inhibition after 48 hr by NCCLS broth dilution method. Conditions: NCIM 2027, 48 h.
For experiment [6], the system named is Escherichia coli. In words: Antibacterial activity against Escherichia coli NCIM 2065 assessed as diameter of growth zone inhibition after 24 hr by disk diffusion method.
In experiment [7] the test system is Bacillus subtilis. As to the kind of experiment: Antibacterial activity against Bacillus subtilis NCIM 2156 assessed as growth inhibition after 48 hr by NCCLS broth dilution method. The conditions noted are these: NCIM 2156, 48 h.
The subject of experiment [8] is Pseudomonas aeruginosa. As to the kind of experiment: Antibacterial activity against Pseudomonas aeruginosa NCIM 2036 assessed as growth inhibition after 48 hr by NCCLS broth dilution method. Conditions: NCIM 2036, 48 h.
For experiment [9], the system named is Escherichia coli. In words: Antibacterial activity against Escherichia coli NCIM 2065 assessed as growth inhibition after 48 hr by NCCLS broth dilution method. Conditions: NCIM 2065, 48 h.
Experiment [10] deals with Bacillus subtilis. As to the kind of experiment: Antibacterial activity against Bacillus subtilis NCIM 2156 assessed as diameter of growth zone inhibition after 24 hr by disk diffusion method.
For experiment [11], the system named is Proteus vulgaris. As to the kind of experiment: Antibacterial activity against Proteus vulgaris NCIM 2027 assessed as diameter of growth zone inhibition after 24 hr by disk diffusion method.
Experiment [12] deals with Pseudomonas aeruginosa. As to the kind of experiment: Antibacterial activity against Pseudomonas aeruginosa NCIM 2036 assessed as diameter of growth zone inhibition after 24 hr by disk diffusion method.

Values after ≈ are worked out from the molar mass of the structure shown.

Broadly, the MIC is the least concentration at which growth counts as inhibited. As for `Cc1cc(/N=C2\C(=O)N(S(=O)(=O)c3ccc([N+](=O)[O-])cc3)c3ccc([N+](=O)[O-])cc32)ccc1N1C(=O)c2ccc(Cl)cc2C1=O`, the “diameter of the inhibition zone (DIZ)” value in the experiment on Staphylococcus aureus [1] turned out to be 18 mm; in [3] it was 20 mm; with Escherichia coli [6], 22 mm; in the experiment with Bacillus subtilis [10], 16 mm; with Proteus vulgaris [11], 14 mm; in the experiment on Pseudomonas aeruginosa [12], 18 mm. Moreover, the MIC in the experiment with Staphylococcus aureus [2] stood at 10 µg/mL (≈ 15.5 µM); in [4], 10 µg/mL (≈ 15.5 µM); in the experiment with Proteus vulgaris [5], 15 µg/mL (≈ 23.2 µM); in the experiment with Bacillus subtilis [7], 15 µg/mL (≈ 23.2 µM); with Pseudomonas aeruginosa [8] it was 10 µg/mL (≈ 15.5 µM); with Escherichia coli [9], 10 µg/mL (≈ 15.5 µM).
As to `Cc1cc(/N=C2\C(=O)N(S(C)(=O)=O)c3ccc([N+](=O)[O-])cc32)ccc1N1C(=O)c2ccc(Cl)cc2C1=O`, the “diameter of the inhibition zone (DIZ)” value with Staphylococcus aureus [1] amounted to 16 mm; in experiment [3] it was 18 mm; in the experiment with Escherichia coli [6] it was 24 mm; with Bacillus subtilis [10], 16 mm; in the experiment on Proteus vulgaris [11] it was 14 mm; in the experiment with Pseudomonas aeruginosa [12] it was 18 mm. The minimal inhibitory concentration (MIC) in the experiment on Staphylococcus aureus [2] came to 15 µg/mL (≈ 27.8 µM); in [4], 10 µg/mL (≈ 18.6 µM); in the experiment on Proteus vulgaris [5] it was 15 µg/mL (≈ 27.8 µM); in the experiment on Bacillus subtilis [7], 15 µg/mL (≈ 27.8 µM); in the experiment on Pseudomonas aeruginosa [8] it was 10 µg/mL (≈ 18.6 µM); in the experiment on Escherichia coli [9], 10 µg/mL (≈ 18.6 µM).
On to `Cc1cc(/N=C2\C(=O)N(S(=O)(=O)C(F)(F)F)c3ccc(OC(F)(F)F)cc32)ccc1N1C(=O)c2ccc(Cl)cc2C1=O`, for which the “diameter of the inhibition zone (DIZ)” value amounted to 18 mm with Staphylococcus aureus [1]; 10 mm in experiment [3]; 23 mm in the experiment with Escherichia coli [6]; 20 mm in the experiment with Bacillus subtilis [10]; 20 mm with Proteus vulgaris [11]; 12 mm in the experiment on Pseudomonas aeruginosa [12]. In addition, the MIC with Staphylococcus aureus [2] was 15 µg/mL (≈ 23.7 µM); in experiment [4], 15 µg/mL (≈ 23.7 µM); with Proteus vulgaris [5], 10 µg/mL (≈ 15.8 µM); with Bacillus subtilis [7], 10 µg/mL (≈ 15.8 µM); in the experiment on Pseudomonas aeruginosa [8], 15 µg/mL (≈ 23.7 µM); in the experiment with Escherichia coli [9] it was 10 µg/mL (≈ 15.8 µM).
